These results are taken from patent US4017607A.

Data set [1] deals with gram-negative and gram-positive bacteria. In words: Antibacterial activity (in words). Format: cell-based.
The test system of data set [2] is Staphylococcus aureus Terajima. In words: Minimum inhibitory concentration, serial dilution method. The class given is cell-based. The conditions noted are these: read-out: Minimum Inhibitory Concentration.
Data set [3] concerns Bacillus subtilis PCI 219. The data set is described as above. The class given is cell-based. The settings on record: read-out: Minimum Inhibitory Concentration.
Data set [4] concerns Bacillus subtilis ATCC 6633. Described as above. The class given is cell-based. The settings on record: read-out: Minimum Inhibitory Concentration.
Data set [5] deals with Staphylococcus aureus 209P. The settings on record: 7th day, 10 mice per group.
For data set [6], the system named is Diplococcus pneumoniae Type III. In words: Minimum inhibitory concentration, serial dilution method. Format: cell-based. The settings on record: Streptococcus pneumoniae, read-out: Minimum Inhibitory Concentration.
Data set [7] concerns Corynebacterium diphtheriae Type gravis. The description is as above. The conditions noted are these: read-out: Minimum Inhibitory Concentration. Format: cell-based.
Data set [8] concerns Bacillus anthracis No. 119. The data set can be described thus: microbe, parasite or virus in culture. The class given is cell-based. The settings on record: NO.119, 24 h, read-out: Minimum Inhibitory Concentration.
The subject of data set [9] is Staphylococcus aureus 209P. In words: Minimum inhibitory concentration, serial dilution method, Brain Heart Infusion broth. The class given is cell-based. The conditions noted are these: read-out: Minimum Inhibitory Concentration.
For data set [10], the system named is Staphylococcus albus 1200A. The data set can be described thus: Minimum inhibitory concentration, serial dilution method. Format: cell-based. The conditions noted are these: read-out: Minimum Inhibitory Concentration.
Data set [11] concerns Streptococcus hemolyticus Cook. The description is as above. The class given is cell-based. The conditions noted are these: Streptococcus pyogenes, read-out: Minimum Inhibitory Concentration.
The test system of data set [12] is Sarcina lutea. The data set is described as above. The class given is cell-based. The conditions noted are these: Micrococcus luteus, read-out: Minimum Inhibitory Concentration.
Data set [13] deals with Streptococcus pyogenes D-58. The description is as above. The class given is cell-based. The conditions noted are these: read-out: Minimum Inhibitory Concentration.
Data set [14] has as its system Corynebacterium diphtheriae Type intermedius. Described as above. The conditions noted are these: read-out: Minimum Inhibitory Concentration. Format: cell-based.
The test system of data set [15] is Staphylococcus aureus Smith. The data set is described as above. The class given is cell-based. The conditions noted are these: read-out: Minimum Inhibitory Concentration.
In data set [16] the test system is Streptococcus hemolyticus D-90. The description is as above. Format: cell-based. The conditions noted are these: Streptococcus pyogenes, read-out: Minimum Inhibitory Concentration.
For data set [17], the system named is Streptococcus faecalis ATCC 8043. The description is as above. Format: cell-based. The settings on record: Enterococcus faecalis, read-out: Minimum Inhibitory Concentration.
For data set [18], the system named is Diplococcus pneumoniae Type I. The description is as above. Format: cell-based. The conditions noted are these: Streptococcus pneumoniae, read-out: Minimum Inhibitory Concentration.
A short description of data set [19]: Acute toxicity by oral administration to mice. The conditions noted are these: mouse, in vivo, free base.
[20] abbreviates: Corynebacterium diphtheriae, 24 h.

Converted amounts (≈) assume the structure as drawn. Where two headings read alike, the source gives them in different places.

Turning to `CCC(=O)OC1CC(=O)OC(C)CC=CC=CC(OC(C)=O)C(C)CC(C=COC(C)=O)C(OC2OC(C)C(OC3CC(C)(OC(=O)CC)C(OC(C)=O)C(C)O3)C(N(C)C)C2OC(C)=O)C1OC` (centres unmarked), the antibacterial activity result in data set [1] is listed as “substantially no antibacterial activity”.
Turning to `CCC(=O)OC1CC(=O)OC(C)CC=CC=CC(OC(C)=O)C(C)CC(C=COC(C)=O)C(OC2OC(C)C(OC3CC(C)(OC(=O)CC)C(OC(C)=O)C(C)O3)C(N(C)C)C2O)C1OC` (centres unmarked), in [1], the antibacterial activity entry is recorded as “no antibacterial activity”.
Same read-out and setting: under “9,2' -di-acetyl-18,3" -di-propionyl SF-837 substance” stands “observed”; under `CCC(=O)OC=CC1CC(C)C(OC(C)=O)C=CC=CCC(C)OC(=O)CC(OC(=O)CC)C(OC)C1OC1OC(C)C(OC2CC(C)(OC(=O)CC)C(OC(=O)CC)C(C)O2)C(N(C)C)C1O` (centres unmarked) [9-acetyl-18,3"-di-propionyl SF-837 substance], “Not observed”.
In the case of `CCC(=O)OC1C=CC=CCC(C)OC(=O)CC(OC(=O)CC)C(OC)C(OC2OC(C)C(OC3CC(C)(OC(=O)CC)C(OC(=O)CC)C(C)O3)C(N(C)C)C2O)C(CC=O)CC1C` (centres unmarked) [Compound No. 7], the MIC came to 1.56 µg/mL (≈ 1.68 µM) in data set [2] (Staphylococcus aureus Terajima, 24 hours, 37° C); 0.78 µg/mL (≈ 0.842 µM) in data set [3] (PCI219, Bacillus subtilis PCI 219, 24 hours, 37° C); 1.56 µg/mL (≈ 1.68 µM) in data set [4] (ATCC6633, Bacillus subtilis ATCC 6633, 24 hours, 37° C); 0.09 µg/mL (≈ 0.0972 µM) in data set [6] (Diplococcus pneumoniae Type III, 24 hours, 37° C); 0.19 µg/mL (≈ 0.205 µM) in data set [7] (Corynebacterium diphtheriae Type gravis, 24 hours, 37° C); 0.78 µg/mL (≈ 0.842 µM) in data set [8]. Moreover, the MIC came to 0.78 µg/mL (≈ 0.842 µM) in data set [9] (Staphylococcus aureus 209P, 24 hours, 37° C); 1.56 µg/mL (≈ 1.68 µM) in data set [10] (Staphylococcus albus 1200A, 24 hours, 37° C); 0.19 µg/mL (≈ 0.205 µM) in [11] (Streptococcus hemolyticus Cook, 24 hours, 37° C); 0.09 µg/mL (≈ 0.0972 µM) in data set [12] (Sarcina lutea, 24 hours, 37° C); 0.09 µg/mL (≈ 0.0972 µM) in data set [13] (D58, Streptococcus pyogenes D-58, 24 hours, 37° C); 0.19 µg/mL (≈ 0.205 µM) in data set [14] (Corynebacterium diphtheriae Type intermedius, 24 hours, 37° C). Further, the MIC in data set [15] (Staphylococcus aureus Smith, 24 hours, 37° C) was found to be 0.78 µg/mL (≈ 0.842 µM); in data set [16] (D90, Streptococcus hemolyticus D-90, 24 hours, 37° C) it was 1.56 µg/mL (≈ 1.68 µM); in data set [17] (ATCC8043, Streptococcus faecalis ATCC 8043, 24 hours, 37° C), 0.78 µg/mL (≈ 0.842 µM); in data set [18] (Diplococcus pneumoniae Type I, 24 hours, 37° C), 0.19 µg/mL (≈ 0.205 µM). The “Rate of surviving mice in each group of mice” value is recorded as 5/10 in [5] (100 mg/kg oral) and 10/10 in data set [5] (200 mg/kg oral).
As for `CCC(=O)OC1CC(=O)OC(C)CC=CC=CC(O)C(C)CC(CC=O)C(OC2OC(C)C(OC3CC(C)(O)C(OC(=O)CC)C(C)O3)C(N(C)C)C2O)C1OC` (centres unmarked) [SF-837 substance, reference compound], the MIC in data set [2] (Staphylococcus aureus, 24 h) came to 1.56 µg/mL (≈ 1.92 µM); in data set [3] (Bacillus subtilis, PCI219, 24 h), 0.78 µg/mL (≈ 0.958 µM); in data set [4] (Bacillus subtilis, ATCC6633, 24 h) it was 1.56 µg/mL (≈ 1.92 µM); in data set [6] (24 h), 0.04 µg/mL (≈ 0.0491 µM); in [7] (setting [20]) it was 0.19 µg/mL (≈ 0.233 µM); in data set [8] it was 0.78 µg/mL (≈ 0.958 µM). Moreover, the MIC came to 0.78 µg/mL (≈ 0.958 µM) in [9] (Staphylococcus aureus, 209P, 24 h); 0.78 µg/mL (≈ 0.958 µM) in data set [10] (Staphylococcus, 1200A, 24 h); 0.09 µg/mL (≈ 0.111 µM) in data set [11] (24 h); 0.09 µg/mL (≈ 0.111 µM) in [12] (24 h); 0.09 µg/mL (≈ 0.111 µM) in data set [13] (Streptococcus pyogenes, D58, 24 h); 0.19 µg/mL (≈ 0.233 µM) in data set [14] (setting [20]). In addition, the MIC was determined as 0.19 µg/mL (≈ 0.233 µM) in data set [15] (Staphylococcus aureus, 24 h); 1.56 µg/mL (≈ 1.92 µM) in [16] (D90, 24 h); 1.56 µg/mL (≈ 1.92 µM) in data set [17] (ATCC8043, 24 h); 0.04 µg/mL (≈ 0.0491 µM) in data set [18] (24 h). Further, the “Rate of surviving mice in each group of mice” value in data set [5] (100 mg/kg oral) is 0/10; in data set [5] (200 mg/kg oral) it was 6/10. Moreover, the LD50 in [19] turned out to be 3200 mg/kg.

In general, LD50 refers to the dose expected to kill half of the subjects tested.
